In data set [1] the target is T1, full-length glucocorticoid (GR) protein (Homo sapiens, UniProt P04150).
T1 construct: purchased Invitrogen
T1 sequence (P04150 1-777): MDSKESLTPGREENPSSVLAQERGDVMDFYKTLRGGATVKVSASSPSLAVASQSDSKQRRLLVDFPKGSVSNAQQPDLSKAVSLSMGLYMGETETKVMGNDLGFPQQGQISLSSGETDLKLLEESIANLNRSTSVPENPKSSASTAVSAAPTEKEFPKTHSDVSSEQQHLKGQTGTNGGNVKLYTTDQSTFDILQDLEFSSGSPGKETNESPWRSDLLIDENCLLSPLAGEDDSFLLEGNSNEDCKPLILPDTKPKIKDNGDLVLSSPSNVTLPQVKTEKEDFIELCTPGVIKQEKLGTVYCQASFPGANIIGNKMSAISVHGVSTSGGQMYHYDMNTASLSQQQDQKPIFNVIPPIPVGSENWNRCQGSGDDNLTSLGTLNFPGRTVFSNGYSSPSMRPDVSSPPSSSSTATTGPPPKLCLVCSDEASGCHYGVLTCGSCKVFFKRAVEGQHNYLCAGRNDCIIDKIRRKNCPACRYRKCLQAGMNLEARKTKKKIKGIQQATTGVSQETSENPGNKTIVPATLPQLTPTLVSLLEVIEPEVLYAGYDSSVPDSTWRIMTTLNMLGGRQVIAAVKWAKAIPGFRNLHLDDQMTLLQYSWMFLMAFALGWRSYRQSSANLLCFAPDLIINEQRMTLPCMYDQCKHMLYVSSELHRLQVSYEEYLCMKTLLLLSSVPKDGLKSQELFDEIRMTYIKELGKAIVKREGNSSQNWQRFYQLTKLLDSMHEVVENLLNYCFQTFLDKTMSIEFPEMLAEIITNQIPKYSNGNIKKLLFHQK
Nature of the data set: Glucocorticoid receptor fluorescence polarization ligand binding (GRFP) assay. The source says:
GRFP: Glucocorticoid Receptor Binding
The glucocorticoid receptor fluorescence polarization ligand binding (GRFP) assay is used to evaluate direct binding of testing compounds to full-length glucocorticoid (GR) protein. Reagents for this assay are purchased from Invitrogen in a test kit. A fluorescent labeled GR ligand is used as a fluorescent tracer and test compounds compete with the fluorescent tracer for GR binding. The change in polarization value in the presence of test compounds is due to binding of test compounds to (GR) and is used to determine IC50 and relative binding affinity of test compounds for GR.
For orientation: Polarisation of emitted light reports the rotation of a fluorescent probe.

The next data set relates to LPS-induced serum TNFα. As to the kind of experiment: LPS-induced serum TNFα suppression, 28-day repeat dose mouse model. Format: in vivo, Swiss Webster female mice. The conditions noted are these: Mus musculus, 672 h, mice, oral gavage 28 days. Here is the method: (§1) The compounds were weighed and suspended in a vehicle of 0.5% methylcellulose/0.025% tween 20 (Sigma-Aldrich, St. Louis, Mo.). Compound suspensions were homogenized using a Polytron PT-3100 tissue homogenizer to create a very fine suspension and were then sonicated for 10 minutes using a water bath sonicator. Aliquots of each suspension were made for daily dosing at 0.2 ml/dose. Swiss Webster female mice, 10-12 weeks old, 28-29 grams, (Taconic, Germantown, N.Y.) were used in accordance with the guidelines of the Institutional Animal Care and Use Committee and in accordance with NIH guidelines on laboratory animal welfare. Mice were acclimated in the Pfizer animal facility for three to seven days prior to being utilized in a study. […] Each treatment group contained 5-10 mice. To establish a dosing regimen for the studies, a pilot pharmacodynamic time course experiment was conducted to quantify TNFα repression after a single ED80 dose.
(§2) Body weights were measured on the first and last day of each experiment. Blood samples were obtained after three weeks of dosing for a steady-state pharmacokinetic (PK) analysis. To assess compound effects on LPS-induced TNFα, all mice received an intraperitoneal injection of LPS (Salmonella typhosa, L-7895; Sigma-Aldrich, St. Louis) 2.5 hr after the last dose on day 28. Mice were sacrificed 90 minutes after LPS administration. Serum samples were quantified for osteocalcin and TNFα using the multiplex assays (Linco Research, Inc, St. Charles, Mo.; Luminex 100, Austin, Tex.). Samples were diluted 1:20 and the assay was run according to manufacturer's instructions. The osteocalcin standard was purchased separately (Biomedical Technologies Inc., Stoughton, Mass.). Mice were fasted for 4 hours before serum was collected for TNFα, and osteocalcin levels. For each experiment, outliers were detected by calculating the number of standard deviations from the mean of the group. If the value being examined was more than 2.5 standard deviations from the mean, it was excluded from the rest of the calculations.
(§3) The individual mouse percent inhibition values were fit to a four-parameter logistic model using the dose mean for each group.
(§4) ED50 and ED80 values were obtained for the various endpoints using a four-parameter logistic fit. For compounds which were tested multiple times, ED50 and ED80 values were obtained using four-parameter logistic fits of the combined data from multiple experiments.

Data set [2] concerns Mouse Collagen-Induced Arthritis (mCIA). Nature of the data set: Therapeutic mouse collagen-induced arthritis (mCIA) model. Format: in vivo, Male DBA/J mice. The conditions noted are these: Mus musculus, mice, dosing day 34 through day 49; for ED80: read-out: Therapeutic mCIA (ED80 dose). From the text:
Mouse Collagen-induced arthritis is a commonly used chronic, preclinical model of rheumatoid arthritis in which joint swelling and bone destruction occur following immunization with type II collagen. Reduction of disease incidence and severity has been shown previously to be predictive of disease-modification and signs and symptoms mitigation, respectively, in a clinical setting.
In the therapeutic mCIA model, induction of disease incidence and severity was synchronized via LPS stimulation. Male DBA/J mice were immunized with 100 ug of bovine type II collagen (bCII) on day 0. All mice received an intraperitoneal injection of 20 μg of LPS on day 28 and disease was allowed to develop through day 34. At day 34, all mice had disease (incidence=100%) with an average severity score of seven. Dosing of compounds was initiated in the therapeutic mode on day 34 and continued through day 49. Different treatments were compared by measuring the decrease in incidence (i.e., resolution of disease) and the decrease in severity of paw swelling over time.

For the next data set, the system named is Serum osteocalcin. As to the kind of experiment: Serum osteocalcin suppression, 28-day repeat dose mouse model. The format is in vivo, Swiss Webster female mice. The conditions noted are these: mice, oral gavage 28 days, serum osteocalcin. The method, then: as §1, §2, §3, §4

Structures can show the parent of a compound that is named as a salt.

One may read the IC50 as the midpoint of a concentration-inhibition curve. A low value points to higher potency. `Cc1ncccc1CNC(=O)c1ccc2c(c1)CC[C@@H]1C[C@@](O)(CCC(F)(F)F)CC[C@@]21Cc1ccccc1` [Comparator A, (4βS,7S,8αR)-4β-benzyl-7-hydroxy-N-((2-methylpyridin-3-yl)methyl)-7-(3,3,3-trifluoropropyl)-4β,5,6,7,8,8α,9,10-octahydrophenanthrene-2-carboxamide] registered a 50% inhibitory concentration (IC50) in data set [1] of 7.1 nM.
`Cc1cnc(NC(=O)c2ccc3c(c2)CC[C@@H]2C[C@@](O)(C(F)(F)F)CC[C@@]32Cc2ccccc2)c(C)n1` [Comparator B, (4βS,7R,8αR)-4β-benzyl-N-(3,5-dimethylpyrazin-2-yl)-7-hydroxy-7-(trifluoromethyl)-4β,5,6,7,8,8α,9,10-octahydrophenanthrene-2-carboxamide] yielded an IC50 in data set [1] of 0.35 nM. The ED80 with LPS-induced serum TNFα was 2.91 mg/kg; in data set [2] it was above 10 mg/kg. Further, the “Osteocalcin Suppression (ED80 dose)” value with Serum osteocalcin is given as above 10 mg/kg.
`Cc1ncccc1NC(=O)c1ccc2c(c1)CC[C@@H]1C[C@@](O)(CCC(F)(F)F)CC[C@@]21Cc1ccccc1` [Comparator C, (4βS,7S,8αR)-4β-benzyl-7-hydroxy-N-(2-methylpyridin-3-yl)-7-(3,3,3-trifluoropropyl)-4β,5,6,7,8,8α,9,10-octahydrophenanthrene-2-carboxamide] gave a concentration for half-maximal inhibition (IC50) in data set [1] of 1.22 nM. In addition, the results for the ED80 (in the data set with LPS-induced serum TNFα; in data set [2]) were 1.33 mg/kg and above 10 mg/kg, respectively.
As to `Cc1ccncc1NC(=O)c1ccc2c(c1)CC[C@@H]1C[C@@](O)(C(F)(F)F)CC[C@@]21Cc1ccccc1` [Comparator D, (4βS,7R,8αR)-4β-benzyl-7-hydroxy-N-(4-methylpyridin-3-yl)-7-(trifluoromethyl)-4β,5,5,7,8,8α,9,10-octahydrophenanthrene-2-carboxamide], the IC50 in data set [1] was 2.06 nM. This compound also yielded an ED80 with LPS-induced serum TNFα above 20 mg/kg.
In data set [1], `Cc1ncccc1NC(=O)c1ccc2c(c1)C(=O)C[C@@H]1C[C@@](O)(C(F)(F)F)CC[C@@]21Cc1ccccc1` [Comparator E] displayed an IC50 of 1.18 nM. Also, the values for the ED80 (with LPS-induced serum TNFα; in data set [2]) were 1.18 mg/kg and 2.6 mg/kg, respectively. In addition, the “Osteocalcin Suppression (ED80 dose)” value in the data set with Serum osteocalcin was determined as 1.71 mg/kg.
Take `Cc1ncccc1NC(=O)c1ccc2c(c1)[C@H](O)C[C@@H]1C[C@@](O)(C(F)(F)F)CC[C@@]21Cc1ccccc1` [Comparator F, (4βS,7R,8αR,10R)-4β-benzyl-7,10-dihydroxy-N-(2-methylpyridin-3-yl)-7-(trifluoromethyl)-4β,5,6,7,8,8α,9,10-octahydrophenanthrene-2-carboxamide]: in data set [1], the 50% inhibitory concentration (IC50) was found to be 1.9 nM. Further, the ED80 with LPS-induced serum TNFα is 5.67 mg/kg; in data set [2] it was above 10 mg/kg. In addition, the “Osteocalcin Suppression (ED80 dose)” value in the data set on Serum osteocalcin is on record as above 10 mg/kg.
One may read the ED50 as the midpoint of the dose-response relation. Turning to `Cc1c(NC(=O)c2ccc3c(c2)CC[C@@H]2C[C@@](O)(C(F)(F)F)CC[C@@]32Cc2ccccc2)ccc[n+]1[O-]` [Comparator G], the ED80 in the data set with LPS-induced serum TNFα was 3.33 mg/kg; in data set [2] it was 3 mg/kg. For the same compound, in data set [2] (read-out: Therapeutic mCIA (ED50 dose)), the ED50 was determined as 0.6 mg/kg. Besides, in the data set with Serum osteocalcin, the “Osteocalcin Suppression (ED80 dose)” value is on record as 7.27 mg/kg.
Take `Cc1ncccc1NC(=O)c1ccc2c(c1)CC[C@@H]1C[C@@](O)(C(F)F)CC[C@@]21Cc1ccccc1` [Comparator H, (4βS,7R,8αR)-4-benzyl-7-(difluoromethyl)-7-hydroxy-N-(2-methylpyridin-3-yl)-4β,5,6,7,8,8α,9,10 octahydrophenanthrene-2-carboxamide]: the IC50 in data set [1] turned out to be 8.03 nM. In the data set with LPS-induced serum TNFα, this compound came in with an ED80 of 0.72 mg/kg.
The compound `Cc1ncccc1NC(=O)c1ccc2c(c1)C=C[C@@H]1C[C@@](O)(C(F)(F)F)CC[C@@]21Cc1ccccc1` [Comparator I, (4βS,7R,8αR)-4β-benzyl-7-hydroxy-N-(2-methylpyridin-3-yl)-7-(trifluoromethyl)-4β,5,6,7,8,8α-hexahydrophenanthrene-2-carboxamide] came in with a half-inhibitory concentration (IC50) in data set [1] of 9.12 nM. Also, the ED80 is 5.45 mg/kg in the data set with LPS-induced serum TNFα and above 20 mg/kg in data set [2]. Further, the “Osteocalcin Suppression (ED80 dose)” value in the data set on Serum osteocalcin was above 20 mg/kg.
For `Cc1ncc(NC(=O)c2ccc3c(c2)CC[C@@H]2C[C@@](O)(CCC(F)(F)F)CC[C@@]32Cc2ccccc2)c(C)n1` [Comparator J], the IC50 in data set [1] was 4.58 nM. The ED80 with LPS-induced serum TNFα was 0.79 mg/kg; in data set [2], above 20 mg/kg.
On to `Cc1ncccc1NC(=O)c1ccc2c(c1)CC[C@@H]1C[C@@](OC(=O)OCC(C)C)(C(F)(F)F)CC[C@@]21Cc1ccccc1` [Comparator K, (2R,4αS,10αR)-4-benzyl-7-((2-methylpyridin-3-yl)carbamoyl)-2-(trifluoromethyl)-1,2,3,4,4α,9,10,10α-octahydrophenanthren-2-yl isobutyl carbonate], for which the half-inhibitory concentration (IC50) in data set [1] worked out at 895 nM.
`Cc1ncccc1NC(=O)c1ccc2c(c1)CC[C@@H]1C[C@@](O)(C(F)(F)F)CC[C@@]21Cc1ccccc1` [Example 1 HCL salt] gave an IC50 in data set [1] of 1.31 nM.

(Values after patent publication US7786097B2, “Tricyclic compounds, compositions and methods” (Pfizer Inc., priority 2007, dated 2010).)
